This passage reports relative viability results from the supplement of paper PMC10307832.

Holding throughout (assay): relative viability (nuclei count vs DMSO), 5 days (fraction); higher = more cells survive
Compound in assay [1]: C1=CC(=CC=C1NC(=S)NNC2=C(C=C(C=C2[N+](=O)[O-])C(F)(F)F)[N+](=O)[O-])F [Kobe2602] + Cc1nc(NC(=O)N2CCC[C@H]2C(N)=O)sc1-c1ccnc(C(C)(C)C(F)(F)F)c1 [Alpelisib] (partner 2 µM)
In short, it runs like this:
(§1)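 The day after seeding in 1536-well plates, lung cancer cell lines were treated by pin tool with a single drug, or with a fixed anchor-drug dose together with five library-drug doses (not always all listed) in √10 steps. After 5 days, a combined fix-and-stain solution (final 0.05% Triton X-100, 1% formaldehyde, 1 ug/ml Hoechst) was added. Nuclei counted on 4× images gave relative viability as treated counts over vehicle counts, reported as the median of duplicate plates.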

Compound in assay [2]: C1=CC(=CC=C1NC(=S)NNC2=C(C=C(C=C2[N+](=O)[O-])C(F)(F)F)[N+](=O)[O-])F [Kobe2602] + O=C(c1cc(Cc2n[nH]c(=O)c3ccccc23)ccc1F)N1CCN(C(=O)C2CC2)CC1 [Olaparib] (partner 8 µM)
Put shortly: as §1

Compound in assay [3]: COc1cc2nccc(Oc3ccc(NC(=O)C4(C(=O)Nc5ccc(F)cc5)CC4)cc3)c2cc1OC [Cabozantinib] + CC(=O)Nc1cccc(-n2c(=O)n(C3CC3)c(=O)c3c(Nc4ccc(I)cc4F)n(C)c(=O)c(C)c32)c1 [Trametinib] (partner 0.02 µM)
In short, it runs like this: as §1

Compound in assay [4]: COc1cc2nccc(Oc3ccc(NC(=O)C4(C(=O)Nc5ccc(F)cc5)CC4)cc3)c2cc1OC [Cabozantinib] + CS(=O)(=O)CCNCc1ccc(-c2ccc3ncnc(Nc4ccc(OCc5cccc(F)c5)c(Cl)c4)c3c2)o1 [Lapatinib] (partner 2 µM)
Put shortly:
as §1

HCC-78: the relative viability turned out to be 0.359 in assay [1] (first compound 0.2 µM); 0.359 in assay [1] (first compound 0.6325 µM); 0.391 in assay [1] (first compound 6.325 µM); 0.445 in assay [1] (first compound 20 µM); 0.852 in assay [2] (first compound 0.2 µM); 0.809 in assay [2] (first compound 0.6325 µM). Moreover, the relative viability in assay [2] (first compound 2 µM) came to 0.904; in assay [2] (first compound 6.325 µM), 0.591; in assay [2] (first compound 20 µM) it was 0.907; in assay [3] (first compound 0.06325 µM), 0.515; in assay [3] (first compound 0.2 µM), 0.412; in assay [3] (first compound 0.6325 µM), 0.318. In addition, the relative viability came out at 0.321 in assay [3] (first compound 2 µM); 0.458 in assay [4] (first compound 0.02 µM); 0.922 in assay [4] (first compound 0.06325 µM); 0.348 in assay [4] (first compound 0.2 µM); 0.305 in assay [4] (first compound 0.6325 µM); 0.286 in assay [4] (first compound 2 µM).

HCC-366: the relative viability in assay [1] (first compound 0.2 µM) was found to be 0.364; in assay [1] (first compound 0.6325 µM), 0.493; in assay [1] (first compound 2 µM), 0.309; in assay [1] (first compound 6.325 µM), 0.429; in assay [1] (first compound 20 µM), 0.496; in assay [2] (first compound 0.2 µM) it was 0.368. The relative viability in assay [2] (first compound 0.6325 µM) worked out at 0.345; in assay [2] (first compound 2 µM), 0.32; in assay [2] (first compound 6.325 µM), 0.352; in assay [2] (first compound 20 µM), 0.365; in assay [3] (first compound 0.02 µM), 0.409; in assay [3] (first compound 0.06325 µM), 0.334. Further, the relative viability in assay [3] (first compound 0.2 µM) is 0.35; in assay [3] (first compound 0.6325 µM) it was 0.285; in assay [3] (first compound 2 µM), 0.272; in assay [4] (first compound 0.02 µM), 1.08; in assay [4] (first compound 0.06325 µM), 1.07; in assay [4] (first compound 0.2 µM) it was 1.05. Also, the relative viability came to 1.13 in assay [4] (first compound 0.6325 µM) and 0.957 in assay [4] (first compound 2 µM).

In the case of HCC-827, the relative viability in assay [1] (first compound 0.2 µM) turned out to be 0.951; in assay [1] (first compound 0.6325 µM) it was 0.875; in assay [1] (first compound 2 µM) it was 0.951; in assay [1] (first compound 6.325 µM), 0.936; in assay [1] (first compound 20 µM) it was 1.07; in assay [2] (first compound 0.2 µM) it was 0.681. In addition, the relative viability in assay [2] (first compound 0.6325 µM) was 0.678; in assay [2] (first compound 2 µM) it was 0.683; in assay [2] (first compound 6.325 µM) it was 0.664; in assay [2] (first compound 20 µM), 0.725; in assay [3] (first compound 0.02 µM), 0.529; in assay [3] (first compound 0.06325 µM), 0.586. In addition, the relative viability in assay [3] (first compound 0.6325 µM) was 0.504; in assay [3] (first compound 2 µM), 0.476; in assay [4] (first compound 0.02 µM), 0.19; in assay [4] (first compound 0.06325 µM) it was 0.233; in assay [4] (first compound 0.6325 µM) it was 0.183; in assay [4] (first compound 2 µM), 0.179.

On to HOP-62, for which the relative viability in assay [1] (first compound 0.2 µM) was found to be 1.05; in assay [1] (first compound 0.6325 µM), 0.846; in assay [1] (first compound 2 µM), 0.934; in assay [1] (first compound 6.325 µM) it was 0.809; in assay [1] (first compound 20 µM) it was 1.25; in assay [2] (first compound 0.2 µM), 0.512. For the same cell line, the relative viability in assay [2] (first compound 0.6325 µM) turned out to be 0.523; in assay [2] (first compound 2 µM), 0.476; in assay [2] (first compound 6.325 µM), 0.316; in assay [2] (first compound 20 µM), 0.472; in assay [3] (first compound 0.02 µM), 0.413; in assay [3] (first compound 0.06325 µM), 0.389. The relative viability in assay [3] (first compound 0.2 µM) was 0.4; in assay [3] (first compound 0.6325 µM), 0.376; in assay [3] (first compound 2 µM), 0.349; in assay [4] (first compound 0.02 µM) it was 1.05; in assay [4] (first compound 0.06325 µM) it was 1.3; in assay [4] (first compound 0.2 µM) it was 1.19. For the same cell line, the values for the relative viability in assay [4] (first compound 0.6325 µM) and in assay [4] (first compound 2 µM) were 1.2 and 1.14, respectively.
